Values quoted from earlier work as cited in patent publication US9650616B2, “Methods for increasing grain yield” (University of Florida Research Foundation, Inc., priority 2014, dated 2017).

Target: T1, maize endosperm AGPase, evolutionary mutant SH2-E (Zea mays, UniProt P55241+Q84PF5)
T1 construct: data of Boehlein et al., 2013
Conditions: cited from earlier work

T1 sequence (Q84PF5 entry or part of it, change not shown): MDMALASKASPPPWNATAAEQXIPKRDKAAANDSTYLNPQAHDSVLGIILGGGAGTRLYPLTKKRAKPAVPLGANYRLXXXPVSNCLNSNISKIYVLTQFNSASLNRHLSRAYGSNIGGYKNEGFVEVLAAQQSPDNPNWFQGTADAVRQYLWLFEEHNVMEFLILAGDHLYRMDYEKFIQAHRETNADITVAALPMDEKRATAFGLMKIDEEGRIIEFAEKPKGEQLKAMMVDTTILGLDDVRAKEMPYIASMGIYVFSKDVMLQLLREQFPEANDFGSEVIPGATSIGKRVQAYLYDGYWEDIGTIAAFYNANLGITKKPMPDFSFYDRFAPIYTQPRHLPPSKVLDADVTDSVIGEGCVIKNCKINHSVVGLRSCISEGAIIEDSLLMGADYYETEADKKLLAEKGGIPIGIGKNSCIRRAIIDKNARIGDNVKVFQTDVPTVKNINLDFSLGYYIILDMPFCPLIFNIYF
T1 sequence (P55241 46-516, change not shown): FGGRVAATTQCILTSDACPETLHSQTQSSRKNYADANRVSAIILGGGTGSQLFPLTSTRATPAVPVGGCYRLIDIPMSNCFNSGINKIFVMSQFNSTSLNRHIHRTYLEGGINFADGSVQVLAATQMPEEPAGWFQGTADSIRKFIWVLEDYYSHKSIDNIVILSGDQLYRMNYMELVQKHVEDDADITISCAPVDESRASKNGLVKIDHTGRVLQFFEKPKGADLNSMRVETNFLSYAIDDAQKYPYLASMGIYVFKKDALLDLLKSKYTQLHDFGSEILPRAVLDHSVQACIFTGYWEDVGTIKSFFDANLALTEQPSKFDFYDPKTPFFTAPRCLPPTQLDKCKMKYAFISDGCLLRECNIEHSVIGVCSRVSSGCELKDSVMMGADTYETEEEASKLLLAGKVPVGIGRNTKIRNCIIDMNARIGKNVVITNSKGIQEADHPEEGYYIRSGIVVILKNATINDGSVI

For `Nc1ncnc2c1ncn2[C@@H]1O[C@H](COP(=O)(O)OP(=O)(O)OP(=O)(O)O)[C@@H](O)[C@H]1O` [ATP], the kcat (absence of 3-PGA) is given as 67.6 s⁻¹, the Km (read-out: ATP Km, absence of 3-PGA) is given as 2530 µM and the Kd (read-out: Kia (dissociation constant for the E-ATP complex), absence of 3-PGA) is given as 5.4 mM.
